These results are taken from patent US10421718B2, “EBNA1 inhibitors and their method of use” (priority 2013, dated 2019).

Each structure is given as a SMILES string. Counter-ions that a name gives are not always drawn. Some results are limits rather than exact numbers.

This assay addresses T1, His-EBNA1 (DNA binding domain of EBNA1, amino acids 459-607) (Epstein-Barr virus, UniProt P03211).
T1 construct: made in house; host or cells: E. coli
Description: Inhibition of 5′-biotin-oPL4624 binding to His-EBNA1 using Alpha Screen technology. The following applies: Alpha Screen Activity (IC50, inhibition of 5′-biotin-oPL4624 binding to His-EBNA1), 15 nM His-EBNA1, 0.2 nM bt-oPL4624, 2 hr room temperature. The gist of the method:
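AlphaScreen signal (680 nm ex, 570 nm em) after a 2-h room-temperature incubation, normalized to no-EBNA1 (100% inhibition) and EBNA1 (0%) values and fit to a one-site curve. Final conditions: 15 nM His-EBNA1 (aa 459-607), 0.2 nM bt-oPL4624, Tris pH 7.2 buffer with 160 mM NaCl, compound 3.2 nM to 100 μM.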

T1 sequence (P03211 459-607): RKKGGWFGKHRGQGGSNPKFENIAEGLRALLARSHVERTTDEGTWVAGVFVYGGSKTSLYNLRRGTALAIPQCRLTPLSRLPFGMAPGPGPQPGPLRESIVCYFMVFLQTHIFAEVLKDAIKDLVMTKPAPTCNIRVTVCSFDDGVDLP

On to `O=C(O)c1cccc(C#Cc2cccc(CO)c2)c1-c1ccc2cc[nH]c2c1` [Entry 249, 3-((3-(hydroxymethyl)phenyl)ethynyl)-2-(1H-indol-6-yl)benzoic acid], for which the IC50 fell in the range of 1 to 10 µM.
Turning to `O=C(O)c1cc2ccc(-c3c(C#Cc4ccccc4)cccc3C(=O)O)cc2[nH]1` [Entry 250, 6-(2-carboxy-6-(phenylethynyl)phenyl)-1H-indole-2-carboxylic acid], the half-inhibitory concentration (IC50) is 1 to 10 µM.
Under `CCOC(=O)c1cc2ccc(-c3c(C#Cc4ccccc4)cccc3C(=O)O)cc2[nH]1` [Entry 251, 2-(2-(ethoxycarbonyl)-1H-indol-6-yl)-3-(phenylethynyl)benzoic acid] stands 1 to 10 µM; under `COc1cc(C#Cc2cccc(C(=O)O)c2-c2ccc3cc[nH]c3c2)cc(C(N)=O)c1` [Entry 252, 3-((3-carbamoyl-5-methoxyphenyl)ethynyl)-2-(1H-indol-6-yl)benzoic acid], 1 to 10 µM.
Under `O=C(O)c1cccc(C#Cc2ccccc2)c1-c1ccc2[nH]ccc2c1` [Entry 253, 2-(1H-indol-5-yl)-3-(phenylethynyl)benzoic acid] stands 1 to 10 µM; under `O=C(O)c1cc2cc(-c3c(C#Cc4cccc(O)c4)cccc3C(=O)O)ccc2[nH]1` [Entry 254, 5-(2-carboxy-6-((3-hydroxyphenyl)ethynyl)phenyl)-1H-indole-2-carboxylic acid], 10 to 100 µM; under `COc1ccc(C#Cc2cccc(C(=O)O)c2-c2ccc3[nH]c(C(=O)O)cc3c2)cc1` [Entry 255, 5-(2-carboxy-6-((4-methoxyphenyl)ethynyl)phenyl)-1H-indole-2-carboxylic acid], 10 to 100 µM.
Consider `O=C(O)c1cccc(C#Cc2ccc(F)c(OC3CCOCC3)c2)c1-c1ccc2cc[nH]c2c1` [Entry 256, 3-((4-fluoro-3-(tetrahydro-2H-pyran-4-yloxy)phenyl)ethynyl)-2-(1H-indol-6-yl)benzoic acid], for which the IC50 is 1 to 10 µM.
For the compound `CC(=O)Nc1cccc(-c2c(C#Cc3ccccc3)cccc2C(=O)O)c1` [Entry 257, 5′-acetamido-6-(phenylethynyl)biphenyl-2-carboxylic acid], the IC50 lay within 10 to 100 µM.
Turning to `Nc1ccc2c(c1)ncn2CC#Cc1cccc(C(=O)O)c1-c1ccccc1` [Entry 258, 3-[3-(5-amino-1H-1,3-benzodiazol-1-yl)prop-1-yn-1-yl]-2-phenylbenzoic acid trifluoroacetate salt], the IC50 was in the range of 1 to 10 µM.
Turning to `O=C(O)c1cccc(C#Cc2ccncc2)c1-c1ccc2cc[nH]c2c1` [Entry 259, 2-(1H-indol-6-yl)-3-[2-(pyridin-4-yl)ethynyl]benzoic acid; trifluoroacetate salt], the half-inhibitory concentration (IC50) is 1 to 10 µM.
The figure for `Cc1ccc(-c2c(C#Cc3ccncc3)cccc2C(=O)O)cc1` [Entry 260, 2-(4-methylphenyl)-3-[2-(pyridin-4-yl)ethynyl]benzoic acid; trifluoroacetate salt] is 10 to 100 µM.
Regarding `Cc1ccc(-c2c(C#Cc3cccc(O)c3)cccc2C(=O)O)cc1` [Entry 261, 3-[2-(3-hydroxyphenyl)ethynyl]-2-(4-methylphenyl)benzoic acid], the half-inhibitory concentration (IC50) lay within 10 to 100 µM.
Regarding `O=C(O)c1cccc(C#CCNc2ccc3[nH]cnc3c2)c1-c1ccccc1` [Entry 262, 3-{3-[(1H-1,3-benzodiazol-6-yl)amino]prop-1-yn-1-yl}-2-phenylbenzoic acid; trifluoroacetate salt], the half-inhibitory concentration (IC50) lay within 1 to 10 µM.
The compound `Cn1ccc2cc(-c3c(C#Cc4cccc(O)c4)cccc3C(=O)O)ccc21` [Entry 263, 3-[2-(3-hydroxyphenyl)ethynyl]-2-(1-methyl-1H-indol-5-yl)benzoic acid] came in with a concentration for half-maximal inhibition (IC50) of 1 to 10 µM.
The figure for `CN1CCOc2cc(-c3c(C#Cc4cccc(O)c4)cccc3C(=O)O)ccc21` [Entry 264, 3-[2-(3-hydroxyphenyl)ethynyl]-2-(4-methyl-3,4-dihydro-2H-1,4-benzoxazin-7-yl)benzoic acid; trifluoroacetate salt] is 1 to 10 µM.
Compound `CS(=O)(=O)Nc1cccc(-c2c(C#Cc3cccc(O)c3)cccc2C(=O)O)c1` [Entry 265, 3-[2-(3-hydroxyphenyl)ethynyl]-2-(3-methanesulfonamidophenyl)benzoic acid] gave an IC50 of 10 to 100 µM.
As for `O=C(O)c1cccc(C#Cc2cccc(O)c2)c1-c1ccc2cc[nH]c2c1` [Entry 266, 3-[2-(3-hydroxyphenyl)ethynyl]-2-(1H-indol-6-yl)benzoic acid], the half-maximal inhibitory concentration (IC50) was < 1 µM.
On to `NC(=O)c1cccc(-c2c(C#Cc3cccc(O)c3)cccc2C(=O)O)c1` [Entry 267, 2-(3-carbamoylphenyl)-3-[2-(3-hydroxyphenyl)ethynyl]benzoic acid], for which the IC50 was in the range of 10 to 100 µM.
Turning to `O=C(O)c1cccc(C#Cc2cccc(O)c2)c1-c1cn(S(=O)(=O)c2ccccc2)c2ccccc12` [Entry 268, 2-[1-(benzenesulfonyl)-1H-indol-3-yl]-3-[2-(3-hydroxyphenyl)ethynyl]benzoic acid], the 50% inhibitory concentration (IC50) lay within 10 to 100 µM.
The compound `O=C(O)c1cccc(C#Cc2cccc(O)c2)c1-c1cccc(O)c1` [Entry 269, 2-(3-hydroxyphenyl)-3-[2-(3-hydroxyphenyl)ethynyl]benzoic acid] showed an IC50 of 10 to 100 µM.
`O=C(O)c1cccc(C#Cc2ccncc2)c1-c1ccc2[nH]ccc2c1` [Entry 270, 2-(1H-indol-5-yl)-3-[2-(pyridin-4-yl)ethynyl]benzoic acid; trifluoroacetate salt]: the concentration for half-maximal inhibition (IC50) lay in the range of 10 to 100 µM.
Take `O=C(O)c1cccc(C#Cc2ccncc2)c1-c1cc(O)cc(Cl)c1` [Entry 271, 2-(3-chloro-5-hydroxyphenyl)-3-[2-(pyridin-4-yl)ethynyl]benzoic acid; trifluoroacetate salt]: the 50% inhibitory concentration (IC50) lay within 1 to 10 µM.
On to `O=C(O)c1cccc(C#Cc2ccncc2)c1-c1cc(O)cc(F)c1` [Entry 272, 2-(3-fluoro-5-hydroxyphenyl)-3-[2-(pyridin-4-yl)ethynyl]benzoic acid; trifluoroacetate salt], for which the IC50 is 10 to 100 µM.
The figure for `COc1cc(OC)cc(-c2c(C#Cc3ccncc3)cccc2C(=O)O)c1` [Entry 273, 2-(3,5-dimethoxyphenyl)-3-[2-(pyridin-4-yl)ethynyl]benzoic acid; trifluoroacetate salt] is 10 to 100 µM; for `O=C(O)c1cccc(C#CC(O)c2ccc(F)cc2)c1-c1cccc(O)c1` (stereo not drawn) [Entry 274, 3-[3-(4-fluorophenyl)-3-hydroxyprop-1-yn-1-yl]-2-(3-hydroxyphenyl)benzoic acid] it is 1 to 10 µM; for `O=C(O)c1cccc(C#Cc2cccc(O)c2)c1-c1ccccc1Oc1ccccc1` [Entry 275, 3-[2-(3-hydroxyphenyl)ethynyl]-2-(2-phenoxyphenyl)benzoic acid] it is 10 to 100 µM.
In turn, `O=C(O)c1cccc(C#Cc2cccc(O)c2)c1-c1c[nH]c2ccccc12` [Entry 276, 3-[2-(3-hydroxyphenyl)ethynyl]-2-(1H-indol-3-yl)benzoic acid] showed a half-maximal inhibitory concentration (IC50) of 10 to 100 µM.
For `COc1cc(OC)cc(-c2c(C#Cc3cccc(O)c3)cccc2C(=O)O)c1` [Entry 277, 2-(3,5-dimethoxyphenyl)-3-[2-(3-hydroxyphenyl)ethynyl]benzoic acid], the IC50 was 10 to 100 µM.
Under `NC(=O)c1cccc(C#Cc2cccc(C(=O)O)c2N)c1` [Entry 278, 2-amino-3-[2-(3-carbamoylphenyl)ethynyl]benzoic acid; trifluoroacetate salt] stands 10 to 100 µM; under `Nc1c(C#Cc2cccc(C(=O)O)c2)cccc1C(=O)O` [Entry 279, 2-amino-3-[2-(3-carboxyphenyl)ethynyl]benzoic acid; trifluoroacetate salt], 10 to 100 µM.
Take `C(#Cc1ccc2[nH]ccc2c1)c1cccc(-c2nnn[nH]2)c1` [Entry 280, 5-[3-(1H-tetrazol-5-yl)-phenylethynyl]-1H-indole 5-(3-Ethynyl-phenyl)-1H-tetrazole]: the 50% inhibitory concentration (IC50) lay in the range of 1 to 10 µM.
The figure for `C(#Cc1c[nH]c2ncccc12)c1cccc(-c2nnn[nH]2)c1` [Entry 281, 3-[3-(1H-tetrazol-5-yl)-phenylethynyl]-1H-pyrrolo[2,3-b]pyridine] is 10 to 100 µM.
For `C(#Cc1ccc2cc[nH]c2c1)c1cccc(-c2nnn[nH]2)c1` [Entry 282, 6-[3-(1H-tetrazol-5-yl)-phenylethynyl]-1H-indole], the concentration for half-maximal inhibition (IC50) lay in the range of 1 to 10 µM.
As for `O=S(=O)(c1ccccc1)n1cc(C#Cc2cccc(-c3nnn[nH]3)c2)c2ccccc21` [Entry 283, 1-benzenesulfonyl-3-[3-(1H-tetrazol-5-yl)-phenylethynyl]-1H-indole], the 50% inhibitory concentration (IC50) was < 1 µM.
As for `C(#Cc1c[nH]c2ccccc12)c1cccc(-c2nnn[nH]2)c1` [Entry 284, 3-[3-(1H-tetrazol-5-yl)-phenylethynyl]-1H-indole], the IC50 is < 1 µM.
Consider `OCc1ccccc1C#Cc1cccc(-c2nnn[nH]2)c1` [Entry 285, {2-[3-(1H-tetrazol-5-yl)-phenylethynyl]-phenyl}-methanol], for which the IC50 fell in the range of 10 to 100 µM.
`O=C(O)c1cccc(C#Cc2cccc(C(=O)N3CCOCC3)c2)c1` [Entry 286, 3-[3-(morpholine-4-carbonyl)-phenylethynyl]-benzoic acid] returned a concentration for half-maximal inhibition (IC50) of 10 to 100 µM.
The compound `CNC(=O)c1cccc(C#Cc2cccc(C(=O)O)c2)c1` [Entry 287, 3-(3-methylcarbamoyl-phenylethynyl)-benzoic acid] displayed an IC50 of 10 to 100 µM.
Turning to `CN(C)C(=O)c1cccc(C#Cc2cccc(C(=O)O)c2)c1` [Entry 288, 3-(3-dimethylcarbamoyl-phenylethynyl)-benzoic acid], the 50% inhibitory concentration (IC50) was 100 to 1000 µM.
`CN1CCN(C(=O)c2cccc(C#Cc3cccc(C(=O)O)c3)c2)CC1` [Entry 289, 3-[3-(4-methyl-piperazine-1-carbonyl)-phenylethynyl]-benzoic acid] displayed an IC50 of 100 to 1000 µM.
In the case of `O=C(O)c1cccc(C#Cc2cccc(C(=O)N3CCN(c4ccccc4)CC3)c2)c1` [Entry 290, 3-[3-(4-phenyl-piperazine-1-carbonyl)-phenylethynyl]-benzoic acid], the IC50 fell in the range of 10 to 100 µM.
